The results in this text go back to patent publication US5140040A, “1-aminomethyl-1,2,3,4-tetrahydronaphthalenes” (Abbott Laboratories, priority 1991, dated 1992).

Structures can show the parent of a compound that is named as a salt.

The test system of one test is norepinephrine uptake. In words: Biogenic amine uptake inhibition, rat brain synaptosomes, tritiated norepinephrine. The settings on record: tritiated amine 0.1 μM, 37° C., 4 minutes, read-out: Biogenic Amine Uptake Inhibition IC50 Norephinephrine. The format is biochemical, Sprague-Dawley derived rats. The source says: (§1) Sprague-Dawley derived rats of either sex, weighing about 180-250 g, were killed by decapitation. The brains were immediately removed, placed on a glass plate chilled over crushed ice and dissected according to a modification of the method of Glowinski and Iversen (J. Neurochem. 13, 655-669, 1966). First, the rhombencephalon was separated by transverse section and discarded. The remaining tissue was bisected by a midline sagittal cut. The hypothalamus was removed using the anterior and posterior reference points, respectively. The hippocampus was peeled away and discarded and the striata were exposed and removed. Frontal cortical tissue was dissected from remaining brain structures. The hypothalamus and striatum each weighed about 100 mg , the striata 50-75 mg, and the cortex weighed up to 800 mg. The tissues were placed in a cold Potter-Elvehjem glass homogenizer with 5 (cortex) or 10 (hypothalamus) and 20 (striatum) volumes of ice-cold 0.32M sucrose, pH 7.0 and homogenized by hand. The homogenate was centrifuged at 2500 rpm in a GLC centrifuge for 10 minutes in a refrigerated room. The supernatant fraction containing the synaptosomes was decanted, mixed thoroughly, and kept on crushed ice for use in the uptake studies.
(§2) Uptake studies were conducted according to the method of Synder and Coyle (J. PharmacoI. Exp. Ther. 165, 78-86, 1969) with minor modifications. Usually a 0.1 ml aliquot of the synaptosomal preparation was incubated in a mixture of 0.75 ml of modified Krebs-Ringer buffer, 0.05 ml of the drug being evaluated for uptake inhibition, and 0.1 ml of a 1 μM tritiated amine (norepinephrine, serotonin or dopamine) solution (final concentration 0.1 μM) for a total volume of 1 ml. The modified Krebs-Ringer bicarbonate buffer used in these studies contained 118 mM NaCl, 4 mM KCl, 1.3 mM CaCl2, 1.12 mM KH2 PO4, 1.2 mM MgSO4 and 24 mM NaHCO3, with the addition of 5 mM glucose, 0.15 mM disodium EDTA, 12.5 μM pargyline and 1 mM ascorbic acid. Uptake was initiated by the addition of the tritiated amine, and the mixture was incubated at 37° C. in a Dubnoff Metabolic Shaking Incubator for 4 minutes. Control incubations without the test drug were conducted at 37° C. to determine total uptake and non-specific binding at 0° C. to correct for the diffusion of the tritiated amine into the synaptosomes and/or binding. Filtration was used to terminate uptake and collect the synaptosomes. In the filtration technique the incubation mixture was diluted with 4 ml of ice-cold 0.9% NaCl and filtered through GF/B glass microfiber filters (Whatman) under gentle vacuum. The filters were subsequently washed four times with 5 ml of ice-cold 0.9% NaCl and transferred to glass scintillation vials. Soluene® ([…]) and IONIC FLUOR (Packard) scintillation fluid (3.5 ml) were added and the vials were placed in a mechanical shaker for 1 hour. All samples were cold and dark adapted and counted in a TriCarb® (Packarad) Model 460 Liquid Scintillation Spectrometer. Corrections were automatically made for quenching by the external standard method and for luminescence. All results (see Table 2) are based on total radioactivity.

In the next test the test system is serotonin uptake. Briefly: Biogenic amine uptake inhibition, rat brain synaptosomes, tritiated serotonin. The test is classed as biochemical, Sprague-Dawley derived rats. The settings on record: tritiated amine 0.1 μM, 37° C., 4 minutes.
Excerpt: as §1, §2

The next test has as its target alpha-2-receptor. In words: Radioligand binding, alpha-2 adrenoceptor, rat cerebral cortices, [^3 H]-rauwolscine. The settings on record: for Ki: rat cerebral cortices, [^3 H]-rauwolscine; for alpha-2 - Selectivity Ki alpha-1/Ki alpha 2: ratio of Ki alpha-1 to Ki alpha-2. How it is done:
The compounds were assessed for alpha-adrenergic receptor subtype selectivity by use of radioligand binding techniques as described previously (DeBernardis et.al. J. Med. Chem. 28, 1398 (1985)).

Another test deals with dopamine uptake. In words: Biogenic amine uptake inhibition, rat brain synaptosomes, tritiated dopamine. The test is classed as biochemical, Sprague-Dawley derived rats. As to conditions: tritiated amine 0.1 μM, 37° C., 4 minutes.
Excerpt: as §1, §2

On to `Cc1cc(O)c(O)c2c1C(CN(C)CCc1cccc(F)c1)CCC2` (stereo not drawn) [Example 34, 1-(N-Methylamino)methyl-N-(2-(m-fluorophenyl)ethyl))-5,6-dihydroxy-8-methyltetralin hydrobromide], for which the concentration for half-maximal inhibition (IC50) (commonly the concentration that inhibits the measured activity by half) was found to be 365 nM in the test with norepinephrine uptake, 2200 nM in the test with serotonin uptake and 9400 nM in the test with dopamine uptake. In addition, at alpha-2-receptor, the inhibitory constant (Ki) (commonly the dissociation constant of the complex between target and ligand, obtained from inhibition or displacement) was 2.6 nM. Moreover, the “alpha-2 - Selectivity Ki alpha-1/Ki alpha 2” value with alpha-2-receptor was 127.
Take `CCN(CCc1cccc(F)c1)CC1CCCc2c(OC)cccc21` (stereo not drawn) [Example 72, 1-((N-Ethylamino)methyl-N-(2-(m-fluorophenyl)ethyl))-5-methoxy tetralin hydrochloride]: the IC50 with norepinephrine uptake came to 137 nM; in the test with serotonin uptake, 466 nM; in the test with dopamine uptake, 6830 nM.
For `CCN(CCc1ccsc1)CC1CCCc2cc(OC)ccc21` (stereo not drawn) [Example 44, 1-N-Ethylamino)methyl-N-(2-(3-thienyl)ethyl))-6-methoxy tetralin hydrochloride], the 50% inhibitory concentration (IC50) in the test with norepinephrine uptake came to 357 nM; with serotonin uptake it was 3290 nM; with dopamine uptake, 8640 nM. Moreover, the Ki on alpha-2-receptor is 5.6 nM. For the same compound, in the test with alpha-2-receptor, the “alpha-2 - Selectivity Ki alpha-1/Ki alpha 2” value was found to be 105.
With `COc1ccc2c(c1)CCCC2CN(C)CCc1cccs1` (stereo not drawn) [Example 5, 1-((N-Methylamino)methyl-N-(2-(2-thienyl)ethyl))-6-methoxy tetralin methanesulfonate], the IC50 with norepinephrine uptake was determined as 1040 nM; in the test on serotonin uptake, 5920 nM; in the test on dopamine uptake it was 6520 nM. This compound returned a Ki at alpha-2-receptor of 0.8 nM. In the test on alpha-2-receptor, the “alpha-2 - Selectivity Ki alpha-1/Ki alpha 2” value was found to be 725.
`COc1cccc2c1CCCC2CN(C)CCc1cccc(F)c1` (stereo not drawn) [Example 20c, 1-((N-methylamino)methyl-N-(2-(m-fluorophenyl)ethyl))-5-methoxytetralinmethanesulfonate]: the half-inhibitory concentration (IC50) in the test with norepinephrine uptake was found to be 1580 nM; in the test on serotonin uptake, 161 nM; with dopamine uptake, 9170 nM.
For `CN(CCc1ccccc1)CC1CCCc2cc(O)ccc21` (stereo not drawn) [Example 11, 1-((N-Methylamino)methyl-N-(2-phenylethyl))-6-hydroxy tetralin hydrobromide] the same measures were 1740 nM, 7230 nM and 10100 nM.
With `CN(C)CCCN1c2ccccc2CCc2ccccc21` [Imipramine, reference compound], the results for the IC50 in the test with norepinephrine uptake, in the test with serotonin uptake and in the test on dopamine uptake were 346 nM, 778 nM and 125000 nM, respectively.
For the compound `CN(CCc1cccc(O)c1)CC1CCCc2cc(O)ccc21` (stereo not drawn) [Example 82, 1-((N-Methylamino)methyl-N-(2-(m-hydroxyphenyl)ethyl))-6-hydroxy tetralin hydrochloride], on alpha-2-receptor, the affinity corresponds to a Ki of 4 nM and the “alpha-2 - Selectivity Ki alpha-1/Ki alpha 2” value came out at 124.
On the same counts, the results for `COc1ccc2c(c1)CCCC2CN(C)CCc1ccsc1` (stereo not drawn) [Example 6d, 1--((N-methylamino)methyl N-(2-(3-thienyl)ethyl))-6-methoxy tetralin hydrochloride] are 1.5 nM and 333.
Regarding `COc1ccc2c(c1)C(CN(C)CCc1cccs1)CCC2` (stereo not drawn) [Example 27, 1-((N-Methylamino)methyl-N-(2-(2-thienyl)ethyl))-7-methoxy tetralin hydrochloride], at alpha-2-receptor, the Ki turned out to be 2 nM and the “alpha-2 - Selectivity Ki alpha-1/Ki alpha 2” value came out at 263.
On to `CN(CCc1cccc(F)c1)CC1CCCc2c1ccc1c2OCCO1` (stereo not drawn) [Example 167, 1-((N-Methylamino)methyl N-(2-m-fluorophenethyl))-5,6-ethylenedioxy tetralin methanesulfonate], for which, at alpha-2-receptor, the Ki turned out to be 4.2 nM and the “alpha-2 - Selectivity Ki alpha-1/Ki alpha 2” value is reported as 85.
“8-Fluoro-5,6-methylenedioxy-1-(3-phenylpyrrolidino1-methyl) tetralin hydrochloride [Example 160]”: the results for the 50% inhibitory concentration (IC50) in the test with norepinephrine uptake, in the test with serotonin uptake and in the test with dopamine uptake were 991 nM, 1840 nM and 2930 nM, respectively.
As to `CN(c1ccc2c(c1)CCCC2CN1CCC(c2ccccc2)C1)S(C)(=O)=O` (stereo not drawn) [Example 193, 6-(N-methylmethylsulfonamido)-1-(3-(phenylpyrrolidino-1-methyl)tetralin hydrochloride], on alpha-2-receptor, affinity was put at a Ki of 1.3 nM and the “alpha-2 - Selectivity Ki alpha-1/Ki alpha 2” value was determined as 93.
In the case of `CCN(CCc1cccs1)CC1CCCc2c(OC)cccc21` (stereo not drawn) [Example 73, 1-((N-Ethylamino)methyl-N-(2-(2-thienyl)ethyl))-5-methoxy tetralin hydrochloride], the half-inhibitory concentration (IC50) in the test on norepinephrine uptake was determined as 336 nM; in the test on serotonin uptake it was 840 nM; in the test with dopamine uptake, 8430 nM.
On to `CN(CCc1cccc(F)c1)CC1CCCc2c1ccc(O)c2O` (stereo not drawn) [Example 85, 1-((N-Methylamino)methyl-N-(2-(m-fluorophenyl)ethyl))-5,6-dihydroxy tetralin hydrochloride], for which, at alpha-2-receptor, the Ki was 1.5 nM and the “alpha-2 - Selectivity Ki alpha-1/Ki alpha 2” value amounted to 173.
On to `CCN(CCc1cccs1)CC1CCCc2c1ccc1c2OCCO1` (stereo not drawn) [Example 168, 1-((N-Ethylamino)methyl N-(2-(2-thienyl)ethyl))-5,6-ethylenedioxy tetralin hydrochloride], for which, on alpha-2-receptor, affinity was put at a Ki of 6.6 nM and the “alpha-2 - Selectivity Ki alpha-1/Ki alpha 2” value turned out to be 125.
`CN(CCc1ccccc1)CC1CCCc2cc(N)ccc21` (stereo not drawn) [Example 114, 1-((N-Methylaminomethyl-N-(2-phenylethyl))-6-aminotetralindihydrochloride]: on alpha-2-receptor, the inhibition constant (Ki) was 5.7 nM and the “alpha-2 - Selectivity Ki alpha-1/Ki alpha 2” value turned out to be 127.
On the same counts, the results for `CN(CCc1cccs1)CC1CCCc2c1ccc(O)c2O` (stereo not drawn) [Example 87, 1-((N-Methylamino)methyl-N-(2-(2-thienyl)ethyl))-5,6-dihydroxy tetralin hydrochloride] are 1.6 nM and 278.
Consider `CCN(CCc1cccc(F)c1)CC1CCCc2cc(OC)ccc21` (stereo not drawn) [Example 42, 1-((N-Ethylamino)methyl-N-(2-(m-fluorophenyl)ethyl))-6-methoxy tetralin hydrochloride], for which, at alpha-2-receptor, the Ki was found to be 6.6 nM and the “alpha-2 - Selectivity Ki alpha-1/Ki alpha 2” value is 159.
Regarding `COc1ccc2c(c1)CCC2CN1CCC(c2cccs2)C1` (stereo not drawn) [Example 151, 5-Methoxy1-(3-(2-thienyl)pyrrolidino-1-methyl) indane hydrochloride], on alpha-2-receptor, affinity was put at a Ki of 2.5 nM and the “alpha-2 - Selectivity Ki alpha-1/Ki alpha 2” value is recorded as 71.
On the same counts, the results for `COc1cc2c(cc1C)C(CN(C)CCc1ccco1)CCC2` (stereo not drawn) [Example 128, 1-((N-Methylamino)methyl-N-(2-(2-furyl)ethyl))-6-methoxy 7-methyl tetralin hydrochloride] are 8 nM and 107.
`Fc1ccc2c(c1)CCCC2CN1CCC(c2ccccc2)C1` (stereo not drawn) [Example 148, 6-Fluoro-1-(3-phenylpyrrolidino-1-methyl) tetralin methanesulfonate]: at alpha-2-receptor, affinity was put at a Ki of 6.5 nM and the “alpha-2 - Selectivity Ki alpha-1/Ki alpha 2” value stood at 19.
As for `CN(CCc1cccs1)CC1CCCc2c(Cl)cccc21` (stereo not drawn) [Example 129, 1-((N-Methylamino)methyl-N-(2-(2-thieny)ethyl))-5-chloro tetralin hydrochloride], on alpha-2-receptor, affinity was put at a Ki of 3.6 nM and the “alpha-2 - Selectivity Ki alpha-1/Ki alpha 2” value is given as 55.
Take `COc1cccc2c1CCCC2CN(C)CCc1cccs1` (stereo not drawn) [Example 19, 1-((N-Methylamino)methyl-N-(2-(2-thienyl)ethyl))-5-methoxy tetralin methanesulfonate]: the results for the concentration for half-maximal inhibition (IC50) in the test on norepinephrine uptake, with serotonin uptake and with dopamine uptake were 498 nM, 411 nM and 6090 nM, respectively.
As to `CCOc1ccc2c(c1)CCCC2CN(C)CCc1cccc(N)c1` (stereo not drawn) [Example 69, 1-((N-Methylamino)methyl-N-(2-(m-aminophenyl)ethyl))-6-ethoxy tetralin dihydrochloride], on alpha-2-receptor, the inhibition constant (Ki) stood at 13 nM and the “alpha-2 - Selectivity Ki alpha-1/Ki alpha 2” value is 98.
